Test results: publication PMC11542717 (ADMET & DMPK, 2024)
Read-outs that look alike come from different tables or passages of the source.

Assays:
[1] = test system: fish species; details: 96 h static; ECHA database, mg/L converted to -log M; cited from earlier work
[2] = test system: water flea (Daphnia magna); details: 48 h static, immobilization; ECHA database, converted to -log M; cited from earlier work
[3] = format: physicochemical; details: IAM PC.DD2 column, pH 7.4, acetonitrile gradient, UV filters
[4] = cited from earlier work; for CHIIAM: pharmaceuticals used for model construction (training set); for CHIIAM (predetermined): calibration set, established by isocratic measurement

Structure (SMILES) | pEC50 water flea (Daphnia magna), Experimental [2] | CHIIAM (chromatographic phospholipid binding) [3] | CHIIAM [4] | other results
CCCCC(CC)COC(=O)C(C#N)=C(c1ccccc1)c1ccccc1 (centres unmarked) [Octocrylene, octocrylene] | 5.06 | 60.0 |  | pLC50 fish, Experimental [1]: 5.65; CHIIAM (chromatographic phospholipid binding) ([3]; listed as octocrylene): > 45
CCCCC(CC)COC(=O)c1ccc(N(C)C)cc1 (centres unmarked) [Padimate O, padimate O] | 4.69 | 53.6 |  | pLC50 fish, Experimental [1]: 4.85
COc1cc(O)c(C(=O)c2ccccc2)cc1S(=O)(=O)O [Sulisobenzone, sulisobenzone] | 3.79 | 14.3 |  | pLC50 fish, Experimental [1]: 2.69; CHIIAM (chromatographic phospholipid binding) ([3]; listed as sulisobenzone): < 20
Nc1ccc(S(=O)(=O)Nc2ccc(Cl)nn2)cc1 [Sulfachlorpyridazine] |  |  | 7.67 | 
Cc1ncc([N+](=O)[O-])n1CCO [Metronidazole] |  |  | -4.81 | 
CC1CC(OC(=O)c2ccccc2O)CC(C)(C)C1 (centres unmarked) [Homosalate, homosalate] |  | 56.8 |  | CHIIAM (chromatographic phospholipid binding) ([3]; listed as homosalate): > 45
CCc1nc(N)nc(N)c1-c1ccc(Cl)cc1 [Pyrimethamine] |  |  | 38.2 | 
COc1cc(NS(=O)(=O)c2ccc(N)cc2)nc(OC)n1 [Sulfadimethoxine] |  |  | 13.8 | 
CC(=O)c1ccccc1 [Acetophenone] |  |  |  | CHIIAM (predetermined) [4]: 17.2
COc1ccc(NS(=O)(=O)c2ccc(N)cc2)nn1 [Sulfamethoxypyridazine] |  |  | 10.9 | 
CCCCC(CC)COC(=O)c1ccccc1O (centres unmarked) [Octisalate, octisalate] | 5.58 | 55.1 |  | pLC50 fish, Experimental [1]: 4.40; CHIIAM (chromatographic phospholipid binding) ([3]; listed as octisalate): > 45
COCCc1ccc(OCC(O)CNC(C)C)cc1 (centres unmarked) [Metoprolol] |  |  | 35.4 | 
Cc1ccc(C)c(OCCCC(C)(C)C(=O)O)c1 [Gemfibrozil] |  |  | 33.7 | 
COc1ccc([C@@H]2Sc3ccccc3N(CCN(C)C)C(=O)[C@@H]2OC(C)=O)cc1 [Diltiazem] |  |  | 42.0 | 
CCCCC(=O)c1ccccc1 [Valerophenone] |  |  |  | CHIIAM (predetermined) [4]: 37.3
COc1ccc(C(=O)c2ccccc2)c(O)c1 [Oxybenzone, oxybenzone] | 4.92 | 40.8 |  | pLC50 fish, Experimental [1]: 4.78
CCCCCC(=O)c1ccccc1 [Hexanophenone] |  |  |  | CHIIAM (predetermined) [4]: 41.8

Structure (SMILES) | pEC50 water flea (Daphnia magna), Experimental [2] | CHIIAM (chromatographic phospholipid binding) [3] | CHIIAM [4] | other results
NC(=O)N1c2ccccc2C=Cc2ccccc21 [Carbamazepine] |  |  | 26.9 | 
Nc1ccc(C(=O)O)cc1 [4-Aminobenzoic Acid, 4-aminobenzoic acid] | 3.26 | 3.30 |  | pLC50 fish, Experimental [1]: 2.12; CHIIAM (chromatographic phospholipid binding) ([3]; listed as aminobenzoic acid): < 20
CCCCCCCC(=O)c1ccccc1 [Octanophenone] |  |  |  | CHIIAM (predetermined) [4]: 49.4
COc1ccc(C(=O)c2ccccc2O)c(O)c1 [Dioxybenzone, dioxybenzone] | 4.76 | 39.9 |  | 
Cn1c(=O)c2[nH]cnc2n(C)c1=O [Theophylline] |  |  | 1.80 | 
COc1ccc(C(=O)CC(=O)c2ccc(C(C)(C)C)cc2)cc1 [Avobenzone, avobenzone] | 5.20 | 53.4 |  | CHIIAM (chromatographic phospholipid binding) ([3]; listed as avobenzone): > 45
CN(C)CCC=C1c2ccccc2CCc2ccccc21 [Amitriptyline] |  |  | 55.3 | 
CC1CCC(C(C)C)C(OC(=O)c2ccccc2N)C1 (centres unmarked) [Meradimate, meradimate] | 5.24 | 56.9 |  | pLC50 fish, Experimental [1]: 4.48; CHIIAM (chromatographic phospholipid binding) ([3]; listed as meradimate): > 45
CCCCCCC(=O)c1ccccc1 [Heptanophenone] |  |  |  | CHIIAM (predetermined) [4]: 45.7
CC1COc2c(N3CCN(C)CC3)c(F)cc3c(=O)c(C(=O)O)cn1c23 (centres unmarked) [Ofloxacin] |  |  | 28.9 | 
CCCCC(CC)COC(=O)C=Cc1ccc(OC)cc1 (centres unmarked) [Octinoxate, octinoxate] | 5.03 | 54.2 |  | CHIIAM (chromatographic phospholipid binding) ([3]; listed as octinoxate): > 45
CCC(=O)c1ccccc1 [Propiophenone] |  |  |  | CHIIAM (predetermined) [4]: 25.9
CC1(C)S[C@@H]2[C@H](NC(=O)[C@H](N)c3ccccc3)C(=O)N2[C@H]1C(=O)O [Ampicillin] |  |  | 10.5 | 
O=C(O)Cc1ccccc1Nc1c(Cl)cccc1Cl [Diclofenac] |  |  | 34.1 | 
Nc1ccc(S(=O)(=O)Nc2nccs2)cc1 [Sulfathiazole] |  |  | 11.0 | 
CCCC(=O)c1ccccc1 [Butyrophenone] |  |  |  | CHIIAM (predetermined) [4]: 32.0
O=S(=O)(O)c1ccc2[nH]c(-c3ccccc3)nc2c1 [Ensulizole, ensulizole] | 3.44 | 13.2 |  | pLC50 fish, Experimental [1]: 2.91; CHIIAM (chromatographic phospholipid binding) ([3]; listed as ensulizole): < 20
